Data published in the supplement of paper PMC7661543.
± gives the standard deviation of the averaged measurements.

What was measured:
Test in all cases: relative cell number vs DMSO control (72 h) (% of DMSO); higher = less growth inhibition (more cells)
Details in all cases: sgRNA knockout: sgNT
SKBR3 = tested on: SKBR3
Protocol: (§1)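 QMAP-Seq: a pool of 5 breast cancer cell lines (ZR-75-1, SKBR3, HCC-38, MDA-MB-231, BT-20), each carrying 12 doxycycline-inducible Cas9 sgRNA perturbations (11 knockouts plus non-targeting sgNT), was treated with compounds for 72 h at four 10-fold doses (10 nM-10 uM or 1 nM-1 uM range). Barcodes were amplified and sequenced, and cell number was interpolated from 293T spike-in standard curves. The result is expressed as % of the median of DMSO wells. Two biological replicates.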

ZR-75-1 = tested on: ZR-75-1
Protocol: as §1

HCC-38 = tested on: HCC-38
Protocol: as §1

BT-20 = tested on: BT-20
Protocol: as §1

MDA-MB-231 = tested on: MDA-MB-231
Protocol: as §1

| Compound | relative cell number (SKBR3; 10 nM) | relative cell number (SKBR3; 100 nM) | relative cell number (SKBR3; 1000 nM) | relative cell number (SKBR3; 10000 nM) | relative cell number (ZR-75-1; 10 nM) | relative cell number (ZR-75-1; 100 nM) | relative cell number (ZR-75-1; 1000 nM) | relative cell number (ZR-75-1; 10000 nM) | relative cell number (HCC-38; 10 nM) | relative cell number (HCC-38; 100 nM) | relative cell number (HCC-38; 1000 nM) | relative cell number (HCC-38; 10000 nM) | relative cell number (BT-20; 10 nM) | relative cell number (BT-20; 100 nM) | relative cell number (BT-20; 1000 nM) | relative cell number (BT-20; 10000 nM) | relative cell number (MDA-MB-231; 10 nM) | relative cell number (MDA-MB-231; 100 nM) | relative cell number (MDA-MB-231; 1000 nM) | relative cell number (MDA-MB-231; 10000 nM) | relative cell number (SKBR3; 1 nM) | relative cell number (ZR-75-1; 1 nM) | relative cell number (HCC-38; 1 nM) | relative cell number (BT-20; 1 nM) | relative cell number (MDA-MB-231; 1 nM) |
| --- | --- | --- | --- | --- | --- | --- | --- | --- | --- | --- | --- | --- | --- | --- | --- | --- | --- | --- | --- | --- | --- | --- | --- | --- | --- |
| O=P1(N(CCCl)CCCl)NCCCO1 (stereo not given) [Cyclophosphamide] | 88.4 ± 22 | 86.2 ± 26 | 102 ± 19 | 93.3 ± 7.1 | 83.2 ± 52 | 111 ± 50 | 81.3 ± 37 | 89 ± 21 | 89.7 ± 13 | 86.8 ± 5.3 | 93.6 ± 5.8 | 94.7 ± 8.6 | 81.2 ± 1.5 | 114 ± 0.31 | 107 ± 5.6 | 114 ± 8.3 | 96.1 ± 29 | 134 ± 22 | 74 ± 11 | 136 ± 10 |  |  |  |  |  |
| CC(C)(C)c1nc(-c2cccc(NS(=O)(=O)c3c(F)cccc3F)c2F)c(-c2ccnc(N)n2)s1 [Dabrafenib] | 133 ± 3.3 | 121 ± 1.7 | 96.5 ± 9.5 | 104 ± 14 | 129 ± 31 | 128 ± 3.2 | 119 ± 46 | 76.8 ± 7.1 | 141 ± 32 | 96.9 ± 5.1 | 93.8 ± 4.2 | 94.7 ± 7.9 | 134 ± 10 | 116 ± 16 | 109 ± 12 | 112 ± 1.6 | 106 ± 7.5 | 137 ± 23 | 91.8 ± 27 | 115 ± 10 |  |  |  |  |  |
| CN(C)/N=N/c1[nH]cnc1C(N)=O [Dacarbazine] | 89.1 ± 21 | 91.8 ± 8.6 | 86.9 ± 3.4 | 106 ± 30 | 89.3 ± 32 | 87.7 ± 18 | 93.4 ± 33 | 94.9 ± 2.4 | 96.4 ± 9.5 | 85 ± 22 | 90.4 ± 13 | 96.1 ± 20 | 73.1 ± 11 | 96.3 ± 16 | 108 ± 13 | 88.5 ± 26 | 95 ± 23 | 132 ± 22 | 125 ± 38 | 69.2 ± 6.3 |  |  |  |  |  |
| Cc1nc(Nc2ncc(C(=O)Nc3c(C)cccc3Cl)s2)cc(N2CCN(CCO)CC2)n1 [Dasatinib] | 53.8 ± 31 | 96.7 ± 42 | 107 ± 28 | 41.6 ± 1.3 | 107 ± 27 | 75.8 ± 34 | 65.4 ± 11 | 35.9 ± 0.91 | 96.2 ± 12 | 66.2 ± 9.8 | 65.7 ± 4.4 | 32.9 ± 2.9 | 72.1 ± 28 | 82.2 ± 4.3 | 105 ± 1.7 | 63.9 ± 7.7 | 100 ± 5.3 | 53.1 ± 6.1 | 56 ± 14 | 13.8 ± 4.3 |  |  |  |  |  |
| Nc1ncn([C@H]2C[C@H](O)[C@@H](CO)O2)c(=O)n1 [Decitabine] | 104 ± 76 | 68.3 ± 37 | 55.4 ± 22 | 45.9 ± 16 | 119 ± 23 | 54.9 ± 30 | 51.2 ± 7.2 | 40.4 ± 17 | 98.2 ± 27 | 80.8 ± 14 | 49.3 ± 4.6 | 35.6 ± 3.4 | 92.6 ± 11 | 83 ± 5.8 | 75.7 ± 17 | 50.5 ± 15 | 83 ± 13 | 78.2 ± 10 | 31.2 ± 4.4 | 19.9 ± 0.36 |  |  |  |  |  |
| COC(=O)/C=C/C(=O)OC [DimethylFumarate] | 112 ± 23 | 98.3 ± 3 | 86.2 ± 8.6 | 78.2 ± 16 | 95.9 ± 36 | 120 ± 19 | 97.7 ± 76 | 81.2 ± 38 | 104 ± 17 | 81.6 ± 2.4 | 91.4 ± 7.1 | 91.3 ± 20 | 105 ± 18 | 98.2 ± 2.9 | 86.1 ± 15 | 84.8 ± 1.5 | 107 ± 36 | 88.3 ± 9.9 | 91.2 ± 7.2 | 98.8 ± 16 |  |  |  |  |  |
| COc1cccc2c1C(=O)c1c(O)c3c(c(O)c1C2=O)C[C@@](O)(C(=O)CO)C[C@@H]3O[C@H]1C[C@H](N)[C@H](O)[C@H](C)O1 [Doxorubicin] | 82.6 ± 29 | 34.4 ± 8.3 | 15 ± 6.8 | 6.86 ± 0.49 | 50 ± 9.8 | 31.7 ± 2.4 | 22.2 ± 16 | 10 ± 4.1 | 74 ± 5.4 | 38.3 ± 2.5 | 17.2 ± 3.1 | 10.8 ± 3.9 | 83 ± 11 | 46 ± 1.4 | 29.9 ± 5.7 | 16.4 ± 4.5 | 75.6 ± 18 | 19.3 ± 8.7 | 20.3 ± 0.47 | 7.68 ± 2.6 |  |  |  |  |  |
| Nc1ccccc1NC(=O)c1ccc(CNC(=O)OCc2cccnc2)cc1 [Entinostat] | 76.3 ± 10 | 102 ± 18 | 30.3 ± 5.2 | 5.86 ± 2 | 75.3 ± 4.2 | 103 ± 25 | 32.6 ± 24 | 36.1 ± 11 | 106 ± 1.9 | 105 ± 3.4 | 64.8 ± 13 | 36.8 ± 3.2 | 105 ± 2.6 | 103 ± 22 | 50.9 ± 7.8 | 19 ± 12 | 90.4 ± 17 | 115 ± 39 | 39.4 ± 5.7 | 12.5 ± 5.6 |  |  |  |  |  |
| CN1CCN(c2ccc(C(=O)Nc3n[nH]c4ccc(Cc5cc(F)cc(F)c5)cc34)c(NC3CCOCC3)c2)CC1 [Entrectinib] | 113 ± 3.7 | 82.9 ± 36 | 95 ± 19 |  | 105 ± 44 | 73 ± 13 | 85.7 ± 8.3 |  | 96.6 ± 2.2 | 89.3 ± 23 | 79.1 ± 6.5 |  | 97.9 ± 13 | 91.6 ± 1.3 | 92.9 ± 5.6 |  | 101 ± 9.8 | 93.3 ± 6.3 | 105 ± 6.8 |  | 113 ± 7.7 | 73.5 ± 22 | 90.4 ± 11 | 102 ± 28 | 86.7 ± 26 |
| CCOc1ccccc1-n1c(C(C)N2CCN(C(=O)COc3ccc(Cl)cc3)CC2)nc2ccccc2c1=O (stereo not given) [Erastin] | 111.3 ± 0.82 | 85.9 ± 42 | 118 ± 53 | 46 ± 11 | 99.6 ± 21 | 89.4 ± 42 | 81.3 ± 20 | 60.6 ± 13 | 97.1 ± 7.7 | 103 ± 9.8 | 99.2 ± 13 | 60.1 ± 4.2 | 122 ± 20 | 84.4 ± 8.1 | 99.8 ± 1.4 | 40 ± 1.6 | 90.4 ± 8.9 | 103 ± 30 | 87.6 ± 4.9 | 25.1 ± 4.8 |  |  |  |  |  |
